Reference: patent US10988478B1, “Pyrazolo[1,5a]pyrimidine derivatives as IRAK4 modulators” (Genentech, Inc., priority 2015, dated 2021)

Target: human IRAK4 (Homo sapiens (Human), UniProt Q9NWZ3)
Assay: IRAK4 kinase inhibition, Transcreener fluorescence polarization ADP assay
Assay type: biochemical
Conditions: recombinant full-length His6-IRAK4; 125 uM ATP; 90 min; Ki computed using ATP Km 642 uM
Protocol: Compounds were assayed for inhibition of human IRAK4 and IRAK1 catalytic activity using recombinant enzyme produced from insect cells. Full-length IRAK4 protein, carrying an N-terminal His6-Tag, was obtained from Life Technologies (Carlsbad, Calif., USA). The IRAK1 construct was produced internally and was comprised of IRAK1 residues Arg194 to Ser712, preceded by an NH2-terminal His6 tag and the coding sequence for glutathione-S-transferase.

human IRAK4, sequence (Q9NWZ3 whole entry): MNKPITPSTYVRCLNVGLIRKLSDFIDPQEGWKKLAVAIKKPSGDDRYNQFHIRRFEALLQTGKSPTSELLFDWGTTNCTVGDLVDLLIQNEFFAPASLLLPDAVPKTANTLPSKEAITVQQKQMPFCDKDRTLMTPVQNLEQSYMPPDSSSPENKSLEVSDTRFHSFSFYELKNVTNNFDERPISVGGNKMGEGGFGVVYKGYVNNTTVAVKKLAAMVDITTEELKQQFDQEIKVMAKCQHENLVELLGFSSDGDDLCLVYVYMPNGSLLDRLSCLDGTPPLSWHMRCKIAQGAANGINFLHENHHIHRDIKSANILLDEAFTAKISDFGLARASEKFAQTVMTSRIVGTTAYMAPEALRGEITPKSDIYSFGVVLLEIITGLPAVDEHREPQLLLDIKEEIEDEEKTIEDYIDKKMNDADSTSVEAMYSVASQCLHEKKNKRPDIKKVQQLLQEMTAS

| Compound | Ki [nM] |
| --- | --- |
| C[C@@]1(CO)Cc2cc(NC(=O)c3cnn4cccnc34)c(N3CCN(CCO)CC3)cc2O1 [Example 88, N-[(2S)-6-[4-(2-Hydroxyethyl)piperazin-1-yl]-2-(hydroxymethyl)-2-methyl-3H-benzofuran-5-yl]pyrazolo[1,5-a]pyrimidine-3-carboxamide] | 7.6 |
| CC1(C)Cc2cc(NC(=O)c3cnn4cccnc34)c(C3CCN(CC(F)F)CC3)cc2O1 [Example 89, N-[6-[1-(2,2-Difluoroethyl)-4-piperidyl]-2,2-dimethyl-3H-benzofuran-5-yl]pyrazolo[1,5-a]pyrimidine-3-carboxamide] | 26 |
| CC1(C)Cc2cc(NC(=O)c3cnn4cccnc34)c(C3CCN(CC(F)(F)F)CC3)cc2O1 [Example 90, N-[2,2-Dimethyl-6-[1-(2,2,2-trifluoroethyl)-4-piperidyl]-3H-benzofuran-5-yl]pyrazolo[1,5-a]pyrimidine-3-carboxamide] | 43 |
| CC1(C)Cc2cc(NC(=O)c3cnn4cc(C(F)F)cnc34)c(N3CCOCC3)cc2O1 [Example 91, 6-(Difluoromethyl)-N-(2,2-dimethyl-6-morpholino-3H-benzofuran-5-yl)pyrazolo[1,5-a]pyrimidine-3-carboxamide] | 39 |
| CC[C@@]1(C)Cc2cc(NC(=O)c3cnn4cccnc34)c(N3CCOCC3)cc2O1 [Example 96, (S)—N-(2-ethyl-2-methyl-6-morpholino-2,3-dihydrobenzofuran-5-yl)pyrazolo[1,5-a]pyrimidine-3-carboxamide] | 14 |
| C[C@]1(CO)Cc2cc(NC(=O)c3cnn4cccnc34)c(N3CCN(CC(F)F)CC3)cc2O1 [Example 98, N-[(2R)-6-[4-(2,2-Difluoroethyl)piperazin-1-yl]-2-(hydroxymethyl)-2-methyl-3H-benzofuran-5-yl]pyrazolo[1,5-a]pyrimidine-3-carboxamide] | 2.8 |
| C[C@@]1(CO)Cc2cc(NC(=O)c3cnn4cccnc34)c(N3CCN(CC(F)F)CC3)cc2O1 [Example 99, N-[(2S)-6-[4-(2,2-difluoroethyl)piperazin-1-yl]-2-(hydroxymethyl)-2-methyl-3H-benzofuran-5-yl]pyrazolo[1,5-a]pyrimidine-3-carboxamide] | 3.3 |
| CC1(C)Cc2cc(NC(=O)c3cnn4cccnc34)c(N3CCOCC3)cc2S1(=O)=O [Example 118, N-[2,2-Dimethyl-6-(morpholin-4-yl)-1,1-dioxo-2,3-dihydro-benzothiophen-5-yl]pyrazolo[1,5-a]pyrimidine-3-carboxamide] | 14 |
| C[C@@]1(CO)Cc2cc(NC(=O)c3cnn4cccnc34)c(N3CCC(F)(F)CC3)cc2O1 [Example 121, (S)—N-(6-(4,4-Difluoropiperidin-1-yl)-2-(hydroxymethyl)-2-methyl-2,3-dihydrobenzofuran-5-yl)pyrazolo[1,5-a]pyrimidine-3-carboxamide] | 16 |
| C[C@]1(CO)Cc2cc(NC(=O)c3cnn4cccnc34)c(N3CCC(F)(F)CC3)cc2O1 [Example 122, (R)—N-(6-(4,4-difluoropiperidin-1-yl)-2-(hydroxymethyl)-2-methyl-2,3-dihydrobenzofuran-5-yl)pyrazolo[1,5-a]pyrimidine-3-carboxamide] | 6 |
| C[C@]1(CO)Cc2cc(NC(=O)c3cnn4cccnc34)c(N3CCC4(CCOC4)CC3)cc2O1 [Example 125, (R)—N-(2-(Hydroxymethyl)-2-methyl-6-(2-oxa-8-azaspiro[4.5]decan-8-yl)-2,3-dihydrobenzofuran-5-yl)pyrazolo[1,5-a]pyrimidine-3-carboxamide] | 5 |
| C[C@@]1(CO)Cc2cc(NC(=O)c3cnn4cccnc34)c(N3CCC4(CCOC4)CC3)cc2O1 [Example 126, (S)—N-(2-(hydroxymethyl)-2-methyl-6-(2-oxa-8-azaspiro[4.5]decan-8-yl)-2,3-dihydrobenzofuran-5-yl)pyrazolo[1,5-a]pyrimidine-3-carboxamide] | 5.7 |
| C[C@]1(CO)Cc2cc(NC(=O)c3cnn4cccnc34)c(N3CCC(CO)CC3)cc2O1 [Example 129, (R)—N-(2-(Hydroxymethyl)-6-(4-(hydroxymethyl)piperidin-1-yl)-2-methyl-2,3-dihydrobenzofuran-5-yl)pyrazolo[1,5-a]pyrimidine-3-carboxamide] | 3.2 |

The remaining lines, values ahead:

| Ki [nM] | Compound |
| --- | --- |
| 29 | CC1(C)Cc2cc(NC(=O)c3cnn4cccnc34)c(N3CC[C@](C)(CO)C3)cc2O1 [Example 94, (S)—N-(6-(3-(hydroxymethyl)-3-methylpyrrolidin-1-yl)-2,2-dimethyl-2,3-dihydrobenzofuran-5-yl)pyrazolo[1,5-a]pyrimidine-3-carboxamide] |
| 25 | CC1(C)Cc2cc(NC(=O)c3cnn4cccnc34)c(N3CC[C@@](C)(CO)C3)cc2O1 [Example 95, (R)—N-(6-(3-(hydroxymethyl)-3-methylpyrrolidin-1-yl)-2,2-dimethyl-2,3-dihydrobenzofuran-5-yl)pyrazolo[1,5-a]pyrimidine-3-carboxamide] |
| 32 | CC1(C)Cc2cc(NC(=O)c3cnn4cccnc34)c(N3CCc4cncn4CC3)cc2O1 [Example 101, N-[2,2-dimethyl-6-(5,6,8,9-tetrahydroimidazo[1,5-d][1,4]diazepin-7-yl)-3H-benzofuran-5-yl]pyrazolo[1,5-a]pyrimidine-3-carboxamide] |
| 190 | CC1(C)Cc2cc(NC(=O)c3cnn4cccnc34)c(-n3cnc(CO)c3)cc2O1 [Example 102, N-[6-[4-(hydroxymethyl)imidazo 1-1-yl]-2,2-dimethyl-3H-benzofuran-5-yl]pyrazolo[1,5-a]pyrimidine-3-carboxamide] |
| 88 | CC1(C)Cc2cc(NC(=O)c3cnn4cccnc34)c(-n3ccnc3)cc2O1 [Example 103, N-(6-imidazol-1-yl-2,2-dimethyl-3H-benzofuran-5-yl)pyrazolo[1,5-a]pyrimidine-3-carboxamide] |
| 22 | CC1CCCN1c1cc2c(cc1NC(=O)c1cnn3cccnc13)CC(C)(C)O2 (centres unmarked) [Example 104, N-[2,2-dimethyl-6-(2-methylpyrrolidin-1-yl)-3H-benzofuran-5-yl]pyrazolo[1,5-a]pyrimidine-3-carboxamide] |
| 720 | CC1(O)CN(c2cc3c(cc2NC(=O)c2cnn4cccnc24)CC(C)(C)O3)C1 [Example 105, N-[6-(3-hydroxy-3-methyl-azetidin-1-yl)-2,2-dimethyl-3H-benzofuran-5-yl]pyrazolo[1,5-a]pyrimidine-3-carboxamide] |
| 2.4 | CC1(C)Cc2cc(NC(=O)c3cnn4cccnc34)c(N3CCC4(CCOC4)CC3)cc2O1 [Example 106, N-(2,2-dimethyl-6-(2-oxa-8-azaspiro[4.5]decan-8-yl)-2,3-dihydrobenzofuran-5-yl)pyrazolo[1,5-a]pyrimidine-3-carboxamide] |
| 79 | CC1(C)Cc2cc(NC(=O)c3cnn4cccnc34)c(N3CCC4(COC4)C3)cc2O1 [Example 107, N-(2,2-dimethyl-6-(2-oxa-6-azaspiro[3.4]octan-6-yl)-2,3-dihydrobenzofuran-5-yl)pyrazolo[1,5-a]pyrimidine-3-carboxamide] |
| 79 | CC1(C)Cc2cc(NC(=O)c3cnn4cccnc34)c(N3CCC4(CCOC4)C3)cc2O1 (centres unmarked) [Example 108, N-(2,2-dimethyl-6-(2-oxa-7-azaspiro[4.4]nonan-7-yl)-2,3-dihydrobenzofuran-5-yl)pyrazolo[1,5-a]pyrimidine-3-carboxamide] |
| 4.2 | CC1(C)Cc2cc(NC(=O)c3cnn4cccnc34)c(N3CCC4(CCCC4O)CC3)cc2O1 (centres unmarked) [Example 109, N-(6-(1-hydroxy-8-azaspiro[4.5]decan-8-yl)-2,2-dimethyl-2,3-dihydrobenzofuran-5-yl)pyrazolo[1,5-a]pyrimidine-3-carboxamide] |
| 2.5 | CC1(C)Cc2cc(NC(=O)c3cnn4cccnc34)c(N3CCC4(CC3)CC(O)C4)cc2O1 [Example 110, N-(6-(2-hydroxy-7-azaspiro[3.5]nonan-7-yl)-2,2-dimethyl-2,3-dihydrobenzofuran-5-yl)pyrazolo[1,5-a]pyrimidine-3-carboxamide] |
| 4.8 | CC1(C)Cc2cc(NC(=O)c3cnn4cccnc34)c(N3CCC4(CC3)CNC4=O)cc2O1 [Example 111, N-[2,2-dimethyl-6-(3-oxo-2,7-diazaspiro[3.5]nonan-7-yl)-3H-benzofuran-5-yl]pyrazolo[1,5-a]pyrimidine-3-carboxamide] |
| 78 | CC1(C)Cc2cc(NC(=O)c3cnn4cccnc34)c(N3CC4C(C3)C4(F)F)cc2O1 (centres unmarked) [Example 112, N-(6-(6,6-difluoro-3-azabicyclo[3.1.0]hexan-3-yl)-2,2-dimethyl-2,3-dihydrobenzofuran-5-yl)pyrazolo[1,5-a]pyrimidine-3-carboxamide] |
| 320 | CC1(C)Cc2cc(NC(=O)c3cnn4cccnc34)c(-c3ccc(=O)[nH]c3)cc2O1 [Example 113, N-[2,2-Dimethyl-6-(6-oxo-1H-pyridin-3-yl)-3H-benzofuran-5-yl]pyrazolo[1,5-a]pyrimidine-3-carboxamide] |
| 17 | CC1(C)Cc2cc(NC(=O)c3cnn4cccnc34)c(N3CCC4(CC3)COC4)cc2O1 [Example 114, N-(2,2-Dimethyl-6-(2-oxa-7-azaspiro[3.5]nonan-7-yl)-2,3-dihydrobenzofuran-5-yl)pyrazolo[1,5-a]pyrimidine-3-carboxamide] |
| 9.5 | CC1(C)Cc2cc(NC(=O)c3cnn4cccnc34)c(N3CCC(O)C(F)C3)cc2O1 (centres unmarked) [Example 115, N-(6-(3-Fluoro-4-hydroxypiperidin-1-yl)-2,2-dimethyl-2,3-dihydrobenzofuran-5-yl)pyrazolo[1,5-a]pyrimidine-3-carboxamide] |
| 18 | CC1(C)Cc2cc(NC(=O)c3cnn4cccnc34)c(N3CCCNCC3)cc2O1 [Example 116, N-(6-(1,4-diazepan-1-yl)-2,2-dimethyl-2,3-dihydrobenzofuran-5-yl)pyrazolo[1,5-a]pyrimidine-3-carboxamide] |
| 17 | CC1(C)Cc2cc(NC(=O)c3cnn4cccnc34)c(N3CCCOCC3)cc2O1 [Example 117, N-(2,2-dimethyl-6-(1,4-oxazepan-4-yl)-2,3-dihydrobenzofuran-5-yl)pyrazolo[1,5-a]pyrimidine-3-carboxamide] |
